# “Also recorded” adds a separate entry of the source.
# How the values were obtained:
# hH3R = hH3R (Homo sapiens, UniProt Q9Y5N1); test: CRE-luciferase reporter gene assay, hH3R expressed on HEK293T cells; type: cell-based; conditions: intrinsic activity compared to histamine
# [1] = Metabolic stability in mouse liver microsomes
# H1R = H1R (Homo sapiens, UniProt P35367); test: NFAT-luciferase reporter gene assay, H1R; type: cell-based; conditions: up to 10 μM
# H2R = H2R (Homo sapiens, UniProt P25021); test: CRE-luciferase reporter gene assay, H2R; type: cell-based; conditions: up to 10 μM
# [2] = Nephelometry / aqueous solubility; type: physicochemical; conditions: up to 100 mM concentration
# mH4R = biological target: T1, mH4R (Mus musculus, UniProt Q91ZY2); test: CRE-luciferase reporter gene assay, mH4R expressed on HEK293T cells; type: cell-based
# T1 sequence (Q91ZY2 1-391): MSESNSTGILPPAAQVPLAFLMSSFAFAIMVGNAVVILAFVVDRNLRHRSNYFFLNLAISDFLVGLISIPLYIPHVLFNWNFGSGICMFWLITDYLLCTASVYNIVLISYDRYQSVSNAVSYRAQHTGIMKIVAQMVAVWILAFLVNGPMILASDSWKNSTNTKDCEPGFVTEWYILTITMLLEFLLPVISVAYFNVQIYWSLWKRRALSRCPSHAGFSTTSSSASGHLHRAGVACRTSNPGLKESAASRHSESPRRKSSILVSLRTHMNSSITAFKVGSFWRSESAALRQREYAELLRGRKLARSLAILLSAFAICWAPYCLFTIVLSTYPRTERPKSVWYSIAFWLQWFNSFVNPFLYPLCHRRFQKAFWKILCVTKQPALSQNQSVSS
# Male C57Bl6 mice = test: Social recognition test in mice
# rats = conditions: cited from earlier work
# [3] = cited from earlier work
# Sequence of H1R (P35367 whole entry, species assumed): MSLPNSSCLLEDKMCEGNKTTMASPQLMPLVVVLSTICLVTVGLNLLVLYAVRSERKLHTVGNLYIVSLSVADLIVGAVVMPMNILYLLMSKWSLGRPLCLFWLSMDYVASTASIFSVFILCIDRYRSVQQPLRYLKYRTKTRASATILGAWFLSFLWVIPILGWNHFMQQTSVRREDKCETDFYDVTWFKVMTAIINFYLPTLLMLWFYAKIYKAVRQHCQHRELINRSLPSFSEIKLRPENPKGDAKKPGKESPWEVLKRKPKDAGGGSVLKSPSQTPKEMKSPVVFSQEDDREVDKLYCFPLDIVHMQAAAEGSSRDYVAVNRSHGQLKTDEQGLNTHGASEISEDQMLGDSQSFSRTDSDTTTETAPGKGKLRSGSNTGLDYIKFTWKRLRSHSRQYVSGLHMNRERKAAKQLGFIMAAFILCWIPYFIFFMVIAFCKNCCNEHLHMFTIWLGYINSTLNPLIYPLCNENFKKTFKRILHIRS
# Sequence of hH3R (Q9Y5N1 whole entry): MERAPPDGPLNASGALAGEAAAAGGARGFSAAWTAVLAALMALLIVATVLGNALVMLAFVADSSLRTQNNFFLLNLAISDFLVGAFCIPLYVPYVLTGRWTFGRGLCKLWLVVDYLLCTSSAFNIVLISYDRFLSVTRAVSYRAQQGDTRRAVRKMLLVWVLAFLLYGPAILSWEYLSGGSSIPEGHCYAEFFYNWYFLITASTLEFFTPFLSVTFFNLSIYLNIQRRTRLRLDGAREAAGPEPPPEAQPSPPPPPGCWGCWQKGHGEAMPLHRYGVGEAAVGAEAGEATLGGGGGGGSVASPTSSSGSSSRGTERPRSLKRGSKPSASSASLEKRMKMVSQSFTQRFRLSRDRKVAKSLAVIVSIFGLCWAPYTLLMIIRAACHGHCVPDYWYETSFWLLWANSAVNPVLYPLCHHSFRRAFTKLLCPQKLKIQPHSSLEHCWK
# Sequence of H2R (P25021 whole entry, species assumed): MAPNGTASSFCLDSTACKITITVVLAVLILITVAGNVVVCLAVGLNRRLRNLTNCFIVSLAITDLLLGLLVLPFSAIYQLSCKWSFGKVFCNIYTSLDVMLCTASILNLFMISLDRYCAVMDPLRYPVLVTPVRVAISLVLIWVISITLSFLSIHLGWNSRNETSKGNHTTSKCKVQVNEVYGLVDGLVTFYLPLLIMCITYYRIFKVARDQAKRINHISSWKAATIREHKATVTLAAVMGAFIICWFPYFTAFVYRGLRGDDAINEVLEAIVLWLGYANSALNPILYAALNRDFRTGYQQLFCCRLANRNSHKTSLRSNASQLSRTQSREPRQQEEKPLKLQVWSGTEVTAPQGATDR
structure (smiles),measurement,setting,value
"CCNC1CN(c2cc(CC)nc(N)n2)C1 [12c, 4-Ethyl-6-(3-(ethylamino)azetidin-1-yl)pyrimidin-2-amine]",α (intrinsic activity),hH3R,~1.0
"CCCNC1CN(c2ccnc(N)n2)C1.O.O=C(O)/C=C/C(=O)O [14d, 4-(3-(Propylamino)azetidin-1-yl)pyrimidin-2-amine Fumarate Hydrate]",slower elimination compared with the reference control verapamil,[1]; mouse liver microsomes,more than 2 times
same,half-life at 50 μM,"[1]; mouse, microsomes, pH 7.4",131 min
same,activation of H1R,H1R,does not activate
same,activation of H2R,H2R,does not activate
same,microprecipitation (nephelometry),[2],no microprecipitation
same,selectivity in potency mH3R vs mH4R,mH4R,> 10 fold
same,CNS / brain penetration,"Male C57Bl6 mice; indicated by effects in the in vivo social memory test, 5 mg/kg i.p., 5 mg/kg",clearly penetrating the CNS; also recorded: appreciable brain penetration
same,discrimination index (DI),"Male C57Bl6 mice; mice, 5 mg/kg i.p.",negative
same,social recognition memory (discrimination of novel vs familiar mouse),"Male C57Bl6 mice; mice, 5 mg/kg i.p. 30 min before the training session, 5 mg/kg",amnesic effects; also recorded: did not discriminate between the novel and the familiar mouse; also recorded: impairs social recognition
same,exploration time of the cage during test,"Male C57Bl6 mice; mice, 5 mg/kg i.p., during test",148.3 ± 69.4 s
same,exploration time of the cage during training,"Male C57Bl6 mice; mice, 5 mg/kg i.p., during training",136.2 ± 44.1 s
same,sociability,"Male C57Bl6 mice; mice, 5 mg/kg i.p., training session",did not affect
"N=C(N)SCCc1cnc[nH]1 [Imetit, imetit]",effect on memory in the object recognition and passive avoidance tests,rats,memory impairments
c1ncc(CC2CCNCC2)[nH]1 [immepip],effect on memory in the social recognition test,[3],cause amnesia
S=C(NC1CCCCC1)N1CCC(c2cnc[nH]2)CC1 [thioperamide],effect on memory in the social recognition test,[3],improve short-term memory

# Reference: article PMC6912857 (Journal of Medicinal Chemistry, 2019)
